Where “and” joins values, the source holds several entries; their conditions need not be identical. Identical values can stand only once.
Assays:
HIV-1 IIIB strain = assay: Antiviral assay, HIV-1 replication in TZMbl cells (luciferase); type: cell-based; conditions: Human immunodeficiency virus 1, TZM-bl; TZMbl cells, HIV-1 IIIB; read-out: HIV-1 EC50 TZMbl Cells
Method: Drug-mediated inhibition of virus-induced cytotoxicity was assayed in TZM-BL cells. […] Serial dilutions of drugs were added immediately after infection. Luciferase activity was measured as reported [67]. Two days after infection, the culture medium was removed from each well and 100 µl of Bright Glo reagent (Promega, Luis Obispo, CA) was added to the cells for measurement of luminescence using a Victor 2 luminometer (Perkin). […] Cell viability in CEM cells was quantified 5 days after infection with the MTT-dye reduction method.

TZMbl cells = assay: Cytotoxicity in TZMbl cells; type: cell-based; conditions: highest concentration tested
[1] = Cytotoxicity in TZMbl cells; type: cell-based; conditions: human
[2] = molecular target: T1, HIV-1 RT-associated RDDP activity (wt RT) (Human immunodeficiency virus type 1 group M subtype B, UniProt P04585); assay: biochemical
T1 construct: RT is a heterodimeric (p66/p51) multifunctional enzyme; made in house; host or cells: Escherichia coli strain M15
Method: p6HRT-prot vector was kindly provided by Dr. Stuart Le Grice Laboratory. Heterodimeric RT was expressed essentially as described [42]. Briefly, Escherichia coli strain M15 containing the p6HRT-prot vector were grown up to an OD600 of 0.7 and induced with isopropyl β-D-1-thiogalactopyranoside (IPTG) 1.7 mM for 4 h. Cell pellets were resuspended in Lysis buffer (50 mM sodium phosphate pH 7.8, 0.5 mg/mL lysozyme), incubated on ice for 20 min, added 0.3 M final NaCl, sonicated and centrifuged at 30,000× g for 1 h. The supernatant was loaded into a Ni^2+-sepharose column pre-equilibrated with loading buffer (50 mM sodium phosphate pH 7.8, 0.3 M NaCl, 10% glycerol, 10 mM imidazole) and washed thoroughly with wash buffer (50 mM sodium phosphate pH 6.0, 0.3 M NaCl, 10% glycerol, 80 mM imidazole). RT was gradient-eluted with elute buffer (wash buffer with 0.5 M imidazole). Fractions were collected, protein purity was checked by SDS-PAGE and found to be higher than 90%. […] Catalytic activities and protein concentration were determined. […]
The HIV-1 RT-associated RDDP activity was measured as described [66]. […]

[3] = molecular target: T2, Q475A RT RNase H function (Human immunodeficiency virus type 1 group M subtype B, UniProt P04585, Q1062A); assay: RNase H activity of mutated RT Q475A; type: biochemical, HIV-1
T2 construct: Amino acid substitutions were introduced into the p66 HIV-1 RT subunit coded in a p6HRT-prot plasmid; made in house; host or cells: Escherichia coli strain M15
Method: (§1) Amino acid substitutions were introduced into the p66 HIV-1 RT subunit coded in a p6HRT-prot plasmid using the QuikChange protocol (Agilent Technologies Inc., Santa Clara, CA).
(§2) The RT-associated RNase H activity of wt and mutated HIV RTs was measured as described, in 100 µL reaction volume containing 50 mM Tris HCl pH 7.8, 6 mM MgCl2, 1 mM dithiothreitol (DTT), 80 mM KCl, hybrid RNA/DNA (5’-[…]-3’-Fluorescein, 5’-[…]-3’-Dabcyl), and different amounts of enzymes according to a linear range of dose-response curve—20 ng of wt RT; 50 ng K103N RT; 100 ng V108A RT; 4 ng Y181C RT; 100 ng Q475A RT; 100 ng A502F RT. The reaction mixture was incubated for 1 h at 37 °C, the reaction was stopped by addition of EDTA and products were measured with a Victor 3 (Perkin) at 490/528 nm.

K103N RT RDDP activity = molecular target: T3, K103N RT RDDP activity (Human immunodeficiency virus type 1 group M subtype B, UniProt P04585, K690N); assay: biochemical; set-up: species or system HIV-1
T3 construct: Amino acid substitutions were introduced into the p66 HIV-1 RT subunit coded in a p6HRT-prot plasmid; made in house; host or cells: Escherichia coli strain M15
Method: (§4) The HIV-1 RT-associated RDDP activity was measured as described [66]. Briefly, in 25 µL volume containing 60 mM Tris-HCl pH 8.1, 8 mM MgCl2, 60 mM KCl, 13 mM DTT, poly(A)-oligo(dT), 100 µM dTTP, and 6 ng wt RT (or 21 ng K103N RT; 30 ng V108A RT; 1,5 ng Y181C RT; 21 ng Q475A RT; 15 ng A502F RT).

A502F RT RDDP activity = molecular target: T4, A502F RT RDDP activity (Human immunodeficiency virus type 1 group M subtype B, UniProt P04585, A1089F); assay: biochemical; set-up: species or system HIV-1
T4 construct: Amino acid substitutions were introduced into the p66 HIV-1 RT subunit coded in a p6HRT-prot plasmid; made in house; host or cells: Escherichia coli strain M15
Method: as §4

[4] = molecular target: T5, Y181C RT RNase H function (Human immunodeficiency virus type 1 group M subtype B, UniProt P04585, Y768C); assay: RNase H activity of mutated RT Y181C; type: biochemical, HIV-1
T5 construct: Amino acid substitutions were introduced into the p66 HIV-1 RT subunit coded in a p6HRT-prot plasmid; made in house; host or cells: Escherichia coli strain M15
Method: as §1, §2

[5] = Cell viability in CEM cells (MTT); type: cell-based; conditions: human, MTT, 5 days
Method: (§3) Drug-mediated inhibition of virus-induced cytotoxicity was assayed in TZM-BL cells. Triplicate wells of 96-well plates containing 1 × 10^4 TZMbl cells were infected with HIV-1 IIIB strain at a multiplicity of infection of 0.1. Serial dilutions of drugs were added immediately after infection. Luciferase activity was measured as reported. Two days after infection, the culture medium was removed from each well and 100 µl of Bright Glo reagent (Promega, Luis Obispo, CA) was added to the cells for measurement of luminescence using a Victor 2 luminometer (Perkin). The 50% effective concentration (EC50) was defined as the concentration that caused a 50% reduction of luciferase activity (relative light units) compared to virus control wells. Cell viability in CEM cells was quantified 5 days after infection with the MTT-dye reduction method.

CEM cells = assay: Cell viability in CEM cells (MTT); type: cell-based; conditions: highest concentration tested
Method: as §3

[6] = molecular target: T6, K103N RT RNase H function (Human immunodeficiency virus type 1 group M subtype B, UniProt P04585, K690N); assay: RNase H activity of mutated RT K103N; type: biochemical, HIV-1
T6 construct: Amino acid substitutions were introduced into the p66 HIV-1 RT subunit coded in a p6HRT-prot plasmid; made in house; host or cells: Escherichia coli strain M15
Method: as §1, §2

Q475A RT RDDP activity = molecular target: T7, Q475A RT RDDP activity (Human immunodeficiency virus type 1 group M subtype B, UniProt P04585, Q1062A); assay: biochemical; set-up: species or system HIV-1
T7 construct: Amino acid substitutions were introduced into the p66 HIV-1 RT subunit coded in a p6HRT-prot plasmid; made in house; host or cells: Escherichia coli strain M15
Method: as §4

[7] = molecular target: T8, HIV-1 RT-associated RNase H activity (wt RT) (Human immunodeficiency virus type 1 group M subtype B, UniProt P04585); assay: HIV-1 DNA polymerase-independent RNase H activity, wt RT; type: biochemical; conditions: RNase H IC50, wt RT
T8 construct: RT is a heterodimeric (p66/p51) multifunctional enzyme; made in house; host or cells: Escherichia coli strain M15
Method: p6HRT-prot vector was kindly provided by Dr. Stuart Le Grice Laboratory. Heterodimeric RT was expressed essentially as described. Briefly, Escherichia coli strain M15 containing the p6HRT-prot vector were grown up to an OD600 of 0.7 and induced with isopropyl β-D-1-thiogalactopyranoside (IPTG) 1.7 mM for 4 h. Cell pellets were resuspended in Lysis buffer (50 mM sodium phosphate pH 7.8, 0.5 mg/mL lysozyme), incubated on ice for 20 min, added 0.3 M final NaCl, sonicated and centrifuged at 30,000× g for 1 h. The supernatant was loaded into a Ni^2+-sepharose column pre-equilibrated with loading buffer (50 mM sodium phosphate pH 7.8, 0.3 M NaCl, 10% glycerol, 10 mM imidazole) and washed thoroughly with wash buffer (50 mM sodium phosphate pH 6.0, 0.3 M NaCl, 10% glycerol, 80 mM imidazole). RT was gradient-eluted with elute buffer (wash buffer with 0.5 M imidazole). Fractions were collected, protein purity was checked by SDS-PAGE and found to be higher than 90%. RT containing fractions were pooled and diluted 1:1 with dilute buffer (50 mM sodium phosphate pH 7.0, 10% glycerol) then loaded into a Hi-trap Heparine HP GE (Healthcare Lifescience) pre-equilibrated with 10-column volume of loading buffer 2 (50 mM sodium phosphate pH 7.0, 10% glycerol, 150 mM NaCl). Column was then washed with loading buffer 2 and RT was gradient-eluted with elute buffer 2 (50 mM sodium phosphate pH 7.0, 10% glycerol, 150 mM NaCl). Fractions were collected, protein was dialyzed and stored in buffer containing 50 mM Tris HCl pH 7.0, 25 mM NaCl, 1 mM EDTA, 50% glycerol. Catalytic activities and protein concentration were determined. Enzyme-containing fractions were pooled and aliquots were stored at −80 °C.
as §2

[8] = molecular target: T9, V108A RT RNase H function (Human immunodeficiency virus type 1 group M subtype B, UniProt P04585, V695A); assay: RNase H activity of mutated RT V108A; type: biochemical, HIV-1
T9 construct: Amino acid substitutions were introduced into the p66 HIV-1 RT subunit coded in a p6HRT-prot plasmid; made in house; host or cells: Escherichia coli strain M15
Method: as §1, §2

[9] = molecular target: T10, A502F RT RNase H function (Human immunodeficiency virus type 1 group M subtype B, UniProt P04585, A1089F); assay: RNase H activity of mutated RT A502F; type: biochemical, HIV-1
T10 construct: Amino acid substitutions were introduced into the p66 HIV-1 RT subunit coded in a p6HRT-prot plasmid; made in house; host or cells: Escherichia coli strain M15
Method: as §1, §2

V108A RT RDDP activity = molecular target: T11, V108A RT RDDP activity (Human immunodeficiency virus type 1 group M subtype B, UniProt P04585, V695A); assay: biochemical; set-up: species or system HIV-1
T11 construct: Amino acid substitutions were introduced into the p66 HIV-1 RT subunit coded in a p6HRT-prot plasmid; made in house; host or cells: Escherichia coli strain M15
Method: as §4

Y181C RT RDDP activity = molecular target: T12, Y181C RT RDDP activity (Human immunodeficiency virus type 1 group M subtype B, UniProt P04585, Y768C); assay: biochemical; set-up: species or system HIV-1
T12 construct: Amino acid substitutions were introduced into the p66 HIV-1 RT subunit coded in a p6HRT-prot plasmid; made in house; host or cells: Escherichia coli strain M15
Method: as §4

## COc1cc(OC)cc(OC(=O)c2ccc(C(F)(F)F)nc2Nc2cc(Cl)ccc2C)c1 [Compound 21]
HIV-1 IIIB strain
  EC50: 5 ± 0.8 µM
TZMbl cells
  percentage of cells viability in presence of the highest concentration of inhibitor tested, TZMbl: 59%
[1]
  CC50: > 50 µM
[2]
  IC50: 16.1 ± 1.2 µM
[3]
  IC50: > 100 µM
[3]; Q475A RT
  RNase H IC50: completely lost its RNase H inhibitory efficacy
[3]; Q475A RT, vs wt RT
  RNase H Fold: >6.8
K103N RT RDDP activity
  IC50: 16.5 ± 4.8 µM
A502F RT RDDP activity
  IC50: 8 ± 0.7 µM
A502F RT RDDP activity; A502F RT, IC50 mutated RT / IC50 wt RT
  RDDP Fold: 0.5
[4]
  IC50: 11.9 ± 1.4 µM
[5]
  CC50 at 5 days: > 50 µM
CEM cells
  percentage of cells viability in presence of the highest concentration of inhibitor tested, CEM cells: 100%
[6]
  IC50: 53.9 ± 2.2 µM
Q475A RT RDDP activity
  IC50: 17 ± 4.5 µM
[7]
  IC50: 14 µM and 14.7 µM
[8]
  IC50: > 100 µM
[8]; V108A RT
  RNase H IC50: completely lost its RNase H inhibitory efficacy
[9]
  IC50: > 100 µM
[9]; A502F RT
  RNase H IC50: completely lost its RNase H inhibitory efficacy
[9]; A502F RT, vs wt RT
  RNase H Fold: >6.8
V108A RT RDDP activity
  IC50: 82.8 ± 6.3 µM
Y181C RT RDDP activity
  IC50: 22.5 ± 5.3 µM

From PMC7144554, “2-(Arylamino)-6-(trifluoromethyl)nicotinic Acid Derivatives: New HIV-1 RT Dual Inhibitors Active on Viral Replication” (Molecules, 2020)
